This is an account of results in patent EP4585588A1, “BENZIMIDAZOLE COMPOUND, AND PREPARATION METHOD THEREFOR AND USE THEREOF” (Suzhou Pharmavan Co., Ltd., priority 2022, dated 2024).

Assay [1] has as its system Models of Heart Failure due to Pressure Overload of Mice. The assay can be described thus: Pharmacodynamic test in mouse models of heart failure due to pressure overload (thoracic aorta ligation). As to conditions: after four weeks of administration (nine weeks of modeling); for Ejection Fraction (Mean) of Ventriculus Sinister of Heart: Table 5, model group 28.6%; for Ejection Fraction (Mean) of Ventriculus Sinister of Heart / Ejection Fraction (Mean) of Heart: 5 mg/kg intraperitoneal once a day for four consecutive weeks; for effect on the cardiac contractile function (result in words): 5 mg/kg intraperitoneal once a day; for Ejection Fraction (Mean) of Heart: Table 6, model group 29.8%. The class given is in vivo, C57BL/6 mice. Here is the method: 1.1 Animals healthy C57BL/6 mice
Modeling by thoracic aorta ligation surgery: preoperative echocardiography was performed to exclude mice with abnormal cardiac functions; for mice with normal cardiac functions, anesthesia was performed, and the mice were anesthetized and then transferred into a small animal operating table and fixed; an open airway was established via endotracheal intubation, and anesthesia was maintained; taking the second rib as the center, the skin was cut along the sternum toward the first and third ribs to expose the connection between the second rib and the sternum; the second rib was cut to expose the aorta thoracic segment; the aortic arch was freed, a thin thread was inserted underneath, a thin needle was placed in parallel to the aortic arch for co-ligation; after ligation, the thin needle was withdrawn to observe the condition of the mice, and the mice were sutured layer by layer after stabilization; the mice were placed on the thermal insulation pad to keep warm, and after waking up, the mice were put back into the cage for daily feeding according to the activity.
After five weeks of modeling, echocardiography was performed on the mice to determine the ejection fractions of the hearts of the mice. When the ejection fraction decreased by about 50%, the ejection fraction met the experimental requirements, and the administration experiment started. Animals were grouped randomly and administered according to the ultrasound data, the echocardiography was performed every two weeks until week 9 ended, and pathological section analysis was performed.
The results were expressed using mean±standard error, data analysis was performed using GraphPad Prism statistical software, and the comparison was analyzed using a t-test. P < 0.05 was determined that there was a difference with statistical significance, otherwise P was determined that there was no significant difference.

The test system of assay [2] is Primary cardiomyocytes of suckling rats. The assay can be described thus: Area measurement of cardiomyocytes after PE injury. The class given is cell-based. As to conditions: for cardiomyocyte area compared with the PE group (result in words): 10 µM compound, PE 20 µM for 48 hours; for Cell Area Hypertrophy Multiple (Mean±Standard Deviation) Compared with Control Wells: 48 h, 10 µM. As for the experimental part: Primary cardiomyocytes of suckling rats were isolated and cultured and inoculated on a cell culture plate. A drug stock solution was taken and separately added to cell wells according to a certain dilution ratio, and a final concentration was 10 µM. After half hour of drug action, a phenylephrine (PE) stock solution was added, and a final concentration of PE was 20 µM. After 48 hours of PE action, cell samples were collected for real-time quantitative PCR assay or cell area measurement.
Separation and plating of cardiomyocytes of rats: a certain number of SPF suckling rats were taken and placed in a clean bench according to an actual requirement for the number of cells, thoracic cavities were opened by scissors, hearts were separated, and the hearts were cut into tissue fragments with sterilized surgical scissors; Collagenase Type II (manufacturer: Sigma, article No.: C2-28-100MG) was added to a D-HANKS balanced salt buffer to prepare a […] enzyme digestion solution, and the tissue fragments of hearts were continuously digested for three times in a 37 °C constant-temperature water bath box; about 2 mL of the enzyme digestion solution was added for the first time, a supernatant was discarded after digestion, centrifugation and precipitation of cardiomyocytes and tissue fragments, about 4 mL of the enzyme digestion solution was independently added for the second time and the third time to continue digestion, a supernatant was remained each time, DMEM containing 10% FBS with the same volume as the digestion solution in the supernatant was immediately added to neutralize digestive enzymes, the supernatants for the second time and the third time were combined and centrifuged, a supernatant was discarded, an appropriate amount of DMEM containing 10% FBS was added to resuspend the cardiomyocytes, the cardiomyocytes were inoculated in a 100 mm culture plate and subjected to differential adhesion in a constant-temperature cell incubator for 2 h, and a supernatant was taken for cell count.
Area measurement of cardiomyocytes of rats: a 24-well plate precoated with 1% gelatin was taken and plated at 1.0×10^3 cells/well, 500 µL of a 10% FBS+DMEM medium was contained in each well, and cells were cultured in a 37 °C constant-temperature cell incubator for 24 h; different compounds were independently prepared into a 100 mM mother liquor with DMSO and gradient diluted with a 10% FBS+DMEM medium to prepare a 10 µM final solution of the compound containing […]; the medium in the 24-well plate was discarded and replaced with a 500 µL/well medium containing a 10 µM compound, and three replicate wells and a negative control well were set for each compound; after 0.5 hours of drug action, PE (manufacturer: Meilun Biotechnology; article No.: MB1602) with a final concentration of 20 µM was added to each well, and no PE was added to the negative control wells; after 48 hours of PE action, at least five fields of view were randomly selected from each well under an inverted microscope (manufacturer: Nikon; model: Eclipse TS100), and the cell area data was calculated by Image J software; the area of the cells in the negative control wells was set to 1, the cell area hypertrophy multiples of the PE wells and each administration well were calculated separately, and statistical analysis was performed using the One-Way ANOVA method.
The cardiomyocyte area was directly measured and the differences between the groups were compared for verification. The cardiomyocytes were co-intervened with PE and drugs and placed under a microscope for direct observation, and images were taken. The cell area data was calculated using Image J software. […]

For assay [3], the system named is myosin heavy chain β (β-MHC). As to conditions: 48 h, 10 µM.
Description: Separation and plating of cardiomyocytes of rats: a certain number of SPF suckling rats were taken and placed in a clean bench according to an actual requirement for the number of cells, thoracic cavities were opened by scissors, hearts were separated, and the hearts were cut into tissue fragments with sterilized surgical scissors; Collagenase Type II (manufacturer: Sigma, article No.: C2-28-100MG) was added to a D-HANKS balanced salt buffer to prepare a 5 µg/mL enzyme digestion solution, and the tissue fragments of hearts were continuously digested for three times in a 37 °C constant-temperature water bath box; about 2 mL of the enzyme digestion solution was added for the first time, a supernatant was discarded after digestion, centrifugation and precipitation of cardiomyocytes and tissue fragments, about 4 mL of the enzyme digestion solution was independently added for the second time and the third time to continue digestion, a supernatant was remained each time, DMEM containing 10% FBS with the same volume as the digestion solution in the supernatant was immediately added to neutralize digestive enzymes, the supernatants for the second time and the third time were combined and centrifuged, a supernatant was discarded, an appropriate amount of DMEM containing 10% FBS was added to resuspend the cardiomyocytes, the cardiomyocytes were inoculated in a 100 mm culture plate and subjected to differential adhesion in a constant-temperature cell incubator for 2 h, and a supernatant was taken for cell count.
A 24-well plate precoated with 1% gelatin was taken and plated at 1×10^5 cells/well, 500 µL of a 10% FBS+DMEM medium was contained in each well, and cells were cultured in a 37 °C constant-temperature cell incubator for 24 h. Different compounds were independently prepared into a 100 mM mother liquor with DMSO and gradient diluted with a 10% FBS+DMEM medium to prepare a 10 µM final solution of the compound containing 0.5% DMSO. The medium in the 24-well plate was discarded and replaced with a 500 µL/well medium containing a 10 µM compound, and three replicate wells and a negative control well were set for each compound. After 0.5 hours of drug action, PE (manufacturer: Meilun Biotechnology; article No.: MB1602) with a final concentration of 20 µM was added to each well, and no PE was added to the negative control wells; after 48 hours of PE action, sample detection was performed.
Expression levels of genes related to cardiomyocyte hypertrophy was analyzed via real-time quantitative PCR detection of mRNA level of atrial natriuretic peptide (ANP) and myosin heavy chain β (β-MHC). The steps include extraction of total RNA of cells, reverse transcription synthesis of cDNA and real-time quantitative PCR assay.
Based on real-time quantitative PCR detection of an mRNA level of ANP of cardiomyocytes, a drug with a potential of anti-cardiomyocyte hypertrophy was preliminarily screened and verified with an mRNA level of another hypertrophy gene β-MHC using a statistical method One-way ANOVA and statistical software GraphPad Prism.

Turning to `Oc1ccccc1-c1cc(F)c2[nH]cnc2c1` [Formula I-24-C, 2-(7-fluoro-1H-benzimidazol-5-yl)phenol, reference compound], in assay [1], the “Ejection Fraction (Mean) of Ventriculus Sinister of Heart” value was determined as 30.7% and the “effect on the cardiac contractile function (result in words)” value (shortened to “effect”) is reported as “no apparent improvement effect”. Also, in assay [2], the “cardiomyocyte area compared with the PE group (result in words)” value is reported as “no apparent improvement effect” and the “Cell Area Hypertrophy Multiple (Mean±Standard Deviation) Compared with Control Wells” value is 1.95±0.08.
With `Oc1ccc(F)cc1-c1ccc2[nH]cnc2c1` [Formula I-24, 4-fluoro-2-(1H-benzimidazol-5-yl)phenol], the “Ejection Fraction (Mean) of Ventriculus Sinister of Heart” value in assay [1] is recorded as 40.0%. The “Cell Area Hypertrophy Multiple (Mean±Standard Deviation) Compared with Control Wells” value in assay [2] is 1.36±0.12.
Consider `Cc1nc2cc(-c3cc(F)cc(C#N)c3C(C)(C)O)ccc2[nH]1` [Formula II-3, 5-fluoro-2-(2-hydroxypropan-2-yl)-3-(2-methyl-1H-benzimidazol-5-yl)benzonitrile], for which the “Ejection Fraction (Mean) of Heart” value in assay [1] was found to be 40.1%. In addition, the “Cell Area Hypertrophy Multiple (Mean±Standard Deviation) Compared with Control Wells” value in assay [2] worked out at 1.28±0.10. For the same compound, the “Mean (real-time quantitative PCR validation results of cardiomyocyte β-MHC)” value in assay [3] is given as 1.28.
On to `Cc1nc2cc(-c3cc(F)cc(F)c3O)ccc2[nH]1` [Formula I-2, 2,4-difluoro-6-(2-methyl-1H-benzimidazol-5-yl)phenol], for which the “Ejection Fraction (Mean) of Ventriculus Sinister of Heart” value in assay [1] is listed as 38.3%. Besides, the “Cell Area Hypertrophy Multiple (Mean±Standard Deviation) Compared with Control Wells” value in assay [2] turned out to be 1.18±0.16. For the same compound, the “Mean (real-time quantitative PCR validation results of cardiomyocyte β-MHC)” value in assay [3] worked out at 1.21.
Turning to `Cc1nc2cc(-c3cc(F)cc(F)c3C(C)(C)O)ccc2[nH]1` [Formula II-2, 2-(2,4-difluoro-6-(2-methyl-1H-benzimidazol-5-yl)phenyl)propane-2-ol], in assay [1], the “Ejection Fraction (Mean) of Heart” value worked out at 37.3%. The “Cell Area Hypertrophy Multiple (Mean±Standard Deviation) Compared with Control Wells” value in assay [2] came to 1.33±0.11. The “Mean (real-time quantitative PCR validation results of cardiomyocyte β-MHC)” value in assay [3] turned out to be 1.42.
On the same counts, the results for `Cc1nc2cc(-c3cc(F)ccc3C(C)(C)O)ccc2[nH]1` [Formula II-1, 2-(4-fluoro-2-(2-methyl-1H-benzimidazol-5-yl)phenyl)propane-2-ol] are 38.7%, 1.39±0.30 and 1.32.
On the same counts, the results for `CCCc1cc(C#N)c(CO)c(-c2ccc3[nH]cnc3c2)c1` [Formula II-144, 2-(hydroxymethyl)-3-(1H-benzimidazol-5-yl)-5-propylbenzonitrile] are 41.5%, 1.12±0.13 and 1.39.
As for `COc1ccc(F)cc1-c1ccc2[nH]cnc2c1` [Formula I-24-A, 5-(5-fluoro-2-methoxyphenyl)-1H-benzimidazole, reference compound], in assay [1], the “Ejection Fraction (Mean) of Ventriculus Sinister of Heart” value was found to be 29.4% and the “effect” value is listed as “no apparent improvement effect”. In assay [2], the “cardiomyocyte area compared with the PE group (result in words)” value is recorded as “no apparent improvement effect” and the “Cell Area Hypertrophy Multiple (Mean±Standard Deviation) Compared with Control Wells” value came to 1.77±0.11.
On to `CCCc1cc(C#N)c(C(C)O)c(-c2ccc3[nH]cnc3c2)c1` (centres unmarked) [Formula II-96, 2-(1-hydroxyethyl)-3-(1H-benzimidazol-5-yl)-5-propylbenzonitrile], for which the “Ejection Fraction (Mean) of Heart” value in assay [1] came out at 36.8%. Moreover, the “Cell Area Hypertrophy Multiple (Mean±Standard Deviation) Compared with Control Wells” value in assay [2] is 1.49±0.10. Also, in assay [3], the “Mean (real-time quantitative PCR validation results of cardiomyocyte β-MHC)” value is 1.38.
Take `Cc1nc2cc(-c3cc(F)ccc3O)ccc2[nH]1` [Formula I-1, 4-fluoro-2-(2-methyl-1H-benzimidazol-5-yl)phenol]: the “Ejection Fraction (Mean) of Ventriculus Sinister of Heart” value in assay [1] is reported as 37.2%. Besides, the “Cell Area Hypertrophy Multiple (Mean±Standard Deviation) Compared with Control Wells” value in assay [2] was found to be 1.42±0.16. Moreover, the “Mean (real-time quantitative PCR validation results of cardiomyocyte β-MHC)” value in assay [3] turned out to be 1.21.
On to `Cc1nc2cc(-c3cc(C(=O)N(C)C)ccc3C(C)(C)O)ccc2[nH]1` [Formula II-7, 4-(2-hydroxypropan-2-yl)-N,N-dimethyl-3-(2-methyl-1H-benzimidazol-5-yl)benzamide], for which the “Ejection Fraction (Mean) of Heart” value in assay [1] was determined as 39.6%. The “Cell Area Hypertrophy Multiple (Mean±Standard Deviation) Compared with Control Wells” value in assay [2] is recorded as 1.14±0.14. Also, the “Mean (real-time quantitative PCR validation results of cardiomyocyte β-MHC)” value in assay [3] was found to be 1.15.
In the case of `CC(O)c1ccc(F)cc1-c1ccc2[nH]cnc2c1` (centres unmarked) [Formula II-73, 1-(4-fluoro-2-(1H-benzimidazol-5-yl)phenyl)ethane-1-ol], in assay [1], the “Ejection Fraction (Mean) of Heart” value came to 40.5%. In assay [2], the “Cell Area Hypertrophy Multiple (Mean±Standard Deviation) Compared with Control Wells” value is given as 1.17±0.16.
Turning to `Cc1nc2cc(-c3cc(C(N)=O)cc(F)c3O)ccc2[nH]1` [Formula I-5, 3-fluoro-4-hydroxy-5-(2-methyl-1H-benzimidazol-5-yl)benzamide], in assay [1], the “Ejection Fraction (Mean) of Ventriculus Sinister of Heart” value is given as 39.7%. Further, the “Cell Area Hypertrophy Multiple (Mean±Standard Deviation) Compared with Control Wells” value in assay [2] is on record as 1.50±0.15. The “Mean (real-time quantitative PCR validation results of cardiomyocyte β-MHC)” value in assay [3] came to 1.25.
The corresponding values for `Cc1nc2cc(-c3cc(C(=O)O)ccc3O)ccc2[nH]1` [Formula I-48, 4-hydroxy-3-(2-methyl-1H-benzimidazol-5-yl)benzoic acid] are 37.2%, 1.06±0.08 and 1.58.
For `Cn1cnc2cc(-c3cc(F)ccc3O)ccc21` [Formula I-24-B, 4-fluoro-2-(1-methyl-1H-benzimidazol-5-yl)phenol, reference compound], in assay [1], the “Ejection Fraction (Mean) of Ventriculus Sinister of Heart” value amounted to 27.2% and the “effect” value is reported as “no apparent improvement effect”. Also, in assay [2], the “cardiomyocyte area compared with the PE group (result in words)” value was “no apparent improvement effect” and the “Cell Area Hypertrophy Multiple (Mean±Standard Deviation) Compared with Control Wells” value worked out at 1.81±0.20.
With `CC(C)(O)c1ccc(CC#N)cc1-c1ccc2[nH]cnc2c1` [Formula II-43, 2-(4-(2-hydroxypropan-2-yl)-3-(1H-benzimidazol-5-yl)phenyl)acetonitrile], the “Mean (real-time quantitative PCR validation results of cardiomyocyte β-MHC)” value in assay [3] amounted to 1.21.
On to `CCCc1cc(C#N)c(C(C)(C)O)c(-c2ccc3nc[nH]c3c2)c1` [Formula II-48], for which the “Ejection Fraction (Mean) of Heart” value in assay [1] is 41.4%. The “Cell Area Hypertrophy Multiple (Mean±Standard Deviation) Compared with Control Wells” value in assay [2] is recorded as 1.07±0.20.
With `C=CCc1cc(C#N)c(C(C)(C)O)c(-c2ccc3[nH]cnc3c2)c1` [Formula II-42, 5-allyl-2-(2-hydroxypropan-2-yl)-3-(1H-benzimidazol-5-yl)benzonitrile], the “Mean (real-time quantitative PCR validation results of cardiomyocyte β-MHC)” value in assay [3] is on record as 1.48.
